Assay results: article PMC4900804, “Allosteric modulation in monomers and oligomers of a G protein-coupled receptor” (eLife, 2016)
Where a chain is given by its changes, count along the chain named. “And” between values parts separate entries of the source, which are not always exact repeats. Identical values can stand only once. Like-named read-outs stand apart in the source and are kept apart here.

Legend:
[1] = target: M2 receptor in membranes from CHO cells (Homo sapiens, UniProt P08172)
[2] = target: M2 receptors extracted from porcine sarcolemmal membranes (Sus scrofa, UniProt P06199)
Sequence of M2 receptors extracted from porcine sarcolemmal membranes (P06199 whole entry): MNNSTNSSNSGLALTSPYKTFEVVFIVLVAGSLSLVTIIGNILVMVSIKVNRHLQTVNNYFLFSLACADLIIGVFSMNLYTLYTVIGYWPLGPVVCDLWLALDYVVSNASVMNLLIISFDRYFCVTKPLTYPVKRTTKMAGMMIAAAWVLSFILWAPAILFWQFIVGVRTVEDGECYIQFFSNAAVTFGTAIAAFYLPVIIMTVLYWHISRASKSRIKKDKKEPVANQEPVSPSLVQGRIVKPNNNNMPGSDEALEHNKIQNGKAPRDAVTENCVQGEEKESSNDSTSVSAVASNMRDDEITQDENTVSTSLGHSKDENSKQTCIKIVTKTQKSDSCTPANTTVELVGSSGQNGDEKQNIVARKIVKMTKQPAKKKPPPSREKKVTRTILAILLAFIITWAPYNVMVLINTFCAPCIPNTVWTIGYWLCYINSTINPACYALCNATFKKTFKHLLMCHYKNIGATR

[3] = target: T1, M2 receptor monomers purified from Sf9 cells (Homo sapiens, UniProt P08172); assay: Effect of allosteric modulators on the binding of [3H]NMS to purified monomers
T1 sequence (P08172 1-466): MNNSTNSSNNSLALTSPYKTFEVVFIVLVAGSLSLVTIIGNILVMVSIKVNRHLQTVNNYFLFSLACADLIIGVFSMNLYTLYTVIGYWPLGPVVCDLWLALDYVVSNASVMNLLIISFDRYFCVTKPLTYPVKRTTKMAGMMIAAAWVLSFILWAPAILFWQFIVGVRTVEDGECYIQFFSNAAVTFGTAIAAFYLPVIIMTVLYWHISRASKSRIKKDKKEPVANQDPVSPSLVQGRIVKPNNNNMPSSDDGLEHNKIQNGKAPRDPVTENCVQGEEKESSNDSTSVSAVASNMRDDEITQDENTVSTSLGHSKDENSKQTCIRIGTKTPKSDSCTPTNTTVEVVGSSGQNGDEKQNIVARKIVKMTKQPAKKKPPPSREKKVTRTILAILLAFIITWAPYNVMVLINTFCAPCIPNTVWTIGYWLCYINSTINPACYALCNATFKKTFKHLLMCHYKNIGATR

[4] = system: M2 receptors (alanine for aspartic acid at position 103) in HEK293 membranes; details: cited from earlier work
[5] = system: M2 receptor in Sf9 membranes; details: cited from earlier work
[6] = target: T2, copurified heteromer of M2-ECL2+ve and M2-D103A (Homo sapiens, UniProt P08172, D103A/D173R/E172K/E175K); assay: Effect of gallamine on the binding of [3H]NMS to purified hetero-oligomers; details: [3H]NMS 10 nM; 21 hr at 30°C
T2 construct: hexahistidine (His6) (N); made in house; host or cells: co-transfected CHO cells; purified on Ni2+-NTA and anti-FLAG resins
T2 sequence (P08172 1-466 E172K/D173R/E175K): T1 sequence (P08172 1-466) with E172K, D173R, E175K
T2 sequence (P08172 1-466 D103A): T1 sequence (P08172 1-466) with D103A

[7] = target: T1, M2 receptor monomers purified from Sf9 cells; assay type: binding
[8] = target: T3, FlAsH-reacted mCh-M2-FCM in CHO cells (Homo sapiens, UniProt P08172, INS166FLNCCPGCCMEP); assay: FRET between FlAsH and mCherry in the sensor, ligand-dependent change in Eapp; assay type: cell-based; details: ligand 1 mM
T3 sequence (P08172 with tags, fused parts or gaps): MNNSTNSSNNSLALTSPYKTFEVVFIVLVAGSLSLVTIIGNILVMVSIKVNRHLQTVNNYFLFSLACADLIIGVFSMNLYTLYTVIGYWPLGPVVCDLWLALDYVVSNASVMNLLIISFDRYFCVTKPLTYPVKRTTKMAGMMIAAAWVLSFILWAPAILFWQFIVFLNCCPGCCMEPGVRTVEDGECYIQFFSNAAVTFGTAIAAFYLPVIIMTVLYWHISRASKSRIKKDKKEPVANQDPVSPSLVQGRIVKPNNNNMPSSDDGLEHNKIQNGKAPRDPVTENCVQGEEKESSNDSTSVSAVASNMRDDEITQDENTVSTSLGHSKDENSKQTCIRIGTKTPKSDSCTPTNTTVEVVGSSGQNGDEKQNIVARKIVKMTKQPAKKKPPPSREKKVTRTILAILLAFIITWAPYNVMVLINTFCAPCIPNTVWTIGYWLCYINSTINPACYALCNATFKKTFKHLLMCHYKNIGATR

[9] = target: T4, eGFP-M2 solubilized in digitonin–cholate (Homo sapiens, UniProt P08172); assay: Time-resolved fluorescence and fluorescence anisotropy of eGFP-tagged M2 receptor; details: eGFP-M2 + carbachol 1 mM
T4 sequence (P08172 1-466): T1 sequence (P08172 1-466)

[10] = target: mCh-M2(D103A)-FCM (human) (UniProt P08172)
[11] = gallamine, [3H]NMS 10 nM, 21 h at 30 °C, n = 1

O=C1C[C@@H]2OCC=C3CN4CC[C@]56c7ccccc7N1[C@H]5[C@H]2[C@H]3C[C@H]46 [strychnine]
F2 [1]: 2.21 ± 0.16 | nH(1) [1]: 0.72 ± 0.06 and 0.98 ± 0.14 and 1.20 ± 0.07 | nH(2) [1]: 1.44 ± 0.09 and 1.07 ± 0.08 | F2 [2]: 1.57 and 2 | F1 [3]: 1.00 | nH(1) [3]: 0.62 ± 0.07 and 1.23 ± 0.07

N-[^3H]methylscopolamine [[^3H]NMS]
specific binding of radioligand [4]: prevent the specific binding

CC[N+](CC)(CC)CCOc1cccc(OCC[N+](CC)(CC)CC)c1OCC[N+](CC)(CC)CC [gallamine]
log K1 (Equation 2), dose-dependence of kobsd/k0 [5]: −5.99 ± 0.31 | log K2 (Equation 2), dose-dependence of kobsd/k0 [5]: −4.35 ± 0.03 | log K2 (Equation 2, n = 3) [6]: 4.29 ± 0.37 | F1 [7]: 1.00 | F1 [3, 11]: 1.00 | nH(1) [3, 11]: 1.00 ± 0.06

C[N+](C)(C)CCOC(N)=O [carbachol]
∆Eapp, mean change in FRET efficiency ± S.D. [8]: −21.6 ± 11.2% | Fluorescence lifetime (τ) [9]: 2.5 ± 0.1 ns | Rotational correlation time (φ) [9]: 43 ± 5 ns

eGFP-M2 (from UniProt P08172 1-466) (receptor)
NMS (1 μM)-dependent increase in the FRET efficiency between FlAsH and mCherry of the binding-deficient sensor in CHO cells that display eGFP, FlAsH and mCherry (percentage points) [10]: 5.3
